Measurements taken from US20120270844A1, “METHODS FOR TREATING ALZHEIMER'S DISEASE” (aFRAXis, Inc., priority 2009, published 2012).

Assays:
Format in all cases: biochemical
PAK3 = PAK3 (Homo sapiens, UniProt O75914); assay: Z'Lyte fluorescence-based (FRET) PAK kinase assay, PAK3; conditions: 100 μM ATP
Protocol: (§1) A fluorescence-based assay format is used to determine IC50 values of test compounds in vitro. Purified PAK kinase is incubated with ATP, and a test compound at various concentrations and a substrate peptide containing two fluorophores. In a second step, the reaction mix is incubated with a site-specific protease that cleaves non-phosphorylated bat not phosphorylated substrate peptide, disrupting the FRET signal generated by the two fluorophores in the cleaved peptide (Z′Lyte™ Kinase assay platform; Life Technologies).
(§2) Reagents: 50 mM HEPES, pH 7.5; 0.01% BRIJ-35; 10 nM MgCl1; 1 mM EGTA, 2 uM substrate peptide Ser/Thr20 (proprietary Life Technologies Sequence), PAK enzyme [2.42-30.8 ng for PAK1, 0.29-6 ng for PAK2, 1.5-20 ng for PAK3 and 0.1-0.86 ng for PAK4; actual enzyme amounts depend on lot activity of the enzyme preparation]
(§3) Test compounds are dissolved in DMSO at various concentrations; the final DMSO concentration in the assay reaction is 1%.
(§4) ATP concentration at Kin apparent is used in the assay [50 ┌M ATP for PAK1 assay, 75 ┌M ATP for PAK2 assay, 100 μM ATP for PAK3 assay, 5 μM ATP for PAK4 assay] in a total assay volume of 10 μl. Assay reactions are incubated at room temperature for 1 hr. Following the kinase reaction, 5 μl of 1:256 dilution of development solution A (Life Technologies) is added and the reaction mix is incubated for an additional 1 hr at room temperature.
(§5) Plates are analyzed in a standard fluorescence plate reader (Tecan or equivalent) using an excitation wavelength of 400 nn and emission wavelengths of 445 nm and 520 nm.
(§6) Inhibition of kinase reaction is determined by emission ratio=emission@445 nm/emission@520 nm
as §1, with “non-phosphorylated but” for “non-phosphorylated bat”, “peptide (Z'Lyte™” for “peptide (Z′Lyte™”, “assay platform” for “assay platform;”
as §2, with “mM MgCl2;” for “nM MgCl1;”
as §4, with “at Km” for “at Kin”, “[50 μMATP” for “[50 ┌M ATP”, “75 µM” for “75 ┌M”, “[…]” for “10 μl.”, “kinase reaction.” for “kinase reaction,”, “[…]” for “5 μl”
(§7) Plates are analyzed in a standard fluorescence plate reader (Teem or equivalent) using an excitation wavelength of 400 nm and emission wavelengths of 445 nm and 520 nm.

PAK1 = PAK1 (Homo sapiens, UniProt Q13153); assay: Z'Lyte fluorescence-based (FRET) PAK kinase assay, PAK1; conditions: 50 μM ATP
PAK1, sequence (Q13153 whole entry): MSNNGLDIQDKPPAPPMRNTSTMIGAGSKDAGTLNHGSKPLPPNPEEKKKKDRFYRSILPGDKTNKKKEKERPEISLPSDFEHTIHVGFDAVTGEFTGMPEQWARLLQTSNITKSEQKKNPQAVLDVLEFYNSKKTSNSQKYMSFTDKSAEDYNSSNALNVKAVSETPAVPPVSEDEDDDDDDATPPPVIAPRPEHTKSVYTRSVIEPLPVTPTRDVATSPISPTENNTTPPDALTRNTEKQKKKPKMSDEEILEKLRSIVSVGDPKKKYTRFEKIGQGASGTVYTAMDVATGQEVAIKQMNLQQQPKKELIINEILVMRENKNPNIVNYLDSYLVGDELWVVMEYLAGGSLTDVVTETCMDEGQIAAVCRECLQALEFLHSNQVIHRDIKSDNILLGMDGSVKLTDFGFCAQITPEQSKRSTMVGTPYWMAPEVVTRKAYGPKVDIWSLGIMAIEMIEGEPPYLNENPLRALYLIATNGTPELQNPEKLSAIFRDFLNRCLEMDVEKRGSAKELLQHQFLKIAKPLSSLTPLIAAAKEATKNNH
Protocol: as §1, §2, §3, §4, §5, §6
as §1, with “non-phosphorylated but” for “non-phosphorylated bat”, “peptide (Z'Lyte™” for “peptide (Z′Lyte™”, “assay platform” for “assay platform;”
as §2, with “mM MgCl2;” for “nM MgCl1;”
as §4, with “at Km” for “at Kin”, “[50 μMATP” for “[50 ┌M ATP”, “75 µM” for “75 ┌M”, “[…]” for “10 μl.”, “kinase reaction.” for “kinase reaction,”, “[…]” for “5 μl”
as §7

PAK2 = PAK2 (Homo sapiens, UniProt Q13177); assay: Z'Lyte fluorescence-based (FRET) PAK kinase assay, PAK2
PAK2, sequence (Q13177 whole entry): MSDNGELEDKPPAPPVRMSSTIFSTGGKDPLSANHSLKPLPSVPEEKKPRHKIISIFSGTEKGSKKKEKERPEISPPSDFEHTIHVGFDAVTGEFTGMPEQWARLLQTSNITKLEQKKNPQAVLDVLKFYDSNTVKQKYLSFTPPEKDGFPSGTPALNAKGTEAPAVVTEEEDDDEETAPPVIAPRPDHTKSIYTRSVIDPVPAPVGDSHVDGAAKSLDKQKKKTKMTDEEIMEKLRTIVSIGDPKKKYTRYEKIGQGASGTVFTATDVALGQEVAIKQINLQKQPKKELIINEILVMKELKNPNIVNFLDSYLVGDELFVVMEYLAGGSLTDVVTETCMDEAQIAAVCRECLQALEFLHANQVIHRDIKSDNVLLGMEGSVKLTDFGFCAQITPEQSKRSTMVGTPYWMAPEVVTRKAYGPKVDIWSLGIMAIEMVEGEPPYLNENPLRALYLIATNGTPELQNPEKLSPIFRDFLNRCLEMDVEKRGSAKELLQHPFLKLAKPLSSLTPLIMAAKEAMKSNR
Protocol: as §1, §2, §3, §4, §5, §6
as §1, with “non-phosphorylated but” for “non-phosphorylated bat”, “peptide (Z'Lyte™” for “peptide (Z′Lyte™”, “assay platform” for “assay platform;”
as §2, with “mM MgCl2;” for “nM MgCl1;”
as §4, with “at Km” for “at Kin”, “[50 μMATP” for “[50 ┌M ATP”, “75 µM” for “75 ┌M”, “[…]” for “10 μl.”, “kinase reaction.” for “kinase reaction,”, “[…]” for “5 μl”
as §7

PAK4 = PAK4 (Homo sapiens, UniProt O96013); assay: Z'Lyte fluorescence-based (FRET) PAK kinase assay, PAK4; conditions: 5 μM ATP
PAK4, sequence (O96013 whole entry): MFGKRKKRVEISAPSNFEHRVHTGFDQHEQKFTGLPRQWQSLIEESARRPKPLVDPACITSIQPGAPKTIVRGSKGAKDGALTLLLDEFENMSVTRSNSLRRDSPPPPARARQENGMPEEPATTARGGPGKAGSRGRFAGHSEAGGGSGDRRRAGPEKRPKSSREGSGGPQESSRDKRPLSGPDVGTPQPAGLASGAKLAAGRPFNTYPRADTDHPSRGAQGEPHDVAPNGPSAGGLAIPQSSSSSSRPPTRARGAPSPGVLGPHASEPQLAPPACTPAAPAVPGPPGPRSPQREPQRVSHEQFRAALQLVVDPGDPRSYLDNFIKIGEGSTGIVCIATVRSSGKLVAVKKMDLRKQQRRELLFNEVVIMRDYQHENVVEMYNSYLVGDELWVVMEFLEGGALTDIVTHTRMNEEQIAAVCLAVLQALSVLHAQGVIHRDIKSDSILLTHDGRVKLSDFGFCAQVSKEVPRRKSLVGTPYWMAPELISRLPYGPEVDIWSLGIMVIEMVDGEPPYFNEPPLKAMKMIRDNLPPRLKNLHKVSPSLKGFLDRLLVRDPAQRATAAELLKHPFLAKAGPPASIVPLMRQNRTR
Protocol: as §1, §2, §3, §4, §5, §6
as §1, with “non-phosphorylated but” for “non-phosphorylated bat”, “peptide (Z'Lyte™” for “peptide (Z′Lyte™”, “assay platform” for “assay platform;”
as §2, with “mM MgCl2;” for “nM MgCl1;”
as §4, with “at Km” for “at Kin”, “[50 μMATP” for “[50 ┌M ATP”, “75 µM” for “75 ┌M”, “[…]” for “10 μl.”, “kinase reaction.” for “kinase reaction,”, “[…]” for “5 μl”
as §7

[1] = Table 1 of Example 100, 75 μM ATP
[2] = Table 1 of Example 29 (own compound numbering)
[3] = Table 1 of Example 29 (own compound numbering), 75 µM ATP

PAK3, sequence (O75914 whole entry): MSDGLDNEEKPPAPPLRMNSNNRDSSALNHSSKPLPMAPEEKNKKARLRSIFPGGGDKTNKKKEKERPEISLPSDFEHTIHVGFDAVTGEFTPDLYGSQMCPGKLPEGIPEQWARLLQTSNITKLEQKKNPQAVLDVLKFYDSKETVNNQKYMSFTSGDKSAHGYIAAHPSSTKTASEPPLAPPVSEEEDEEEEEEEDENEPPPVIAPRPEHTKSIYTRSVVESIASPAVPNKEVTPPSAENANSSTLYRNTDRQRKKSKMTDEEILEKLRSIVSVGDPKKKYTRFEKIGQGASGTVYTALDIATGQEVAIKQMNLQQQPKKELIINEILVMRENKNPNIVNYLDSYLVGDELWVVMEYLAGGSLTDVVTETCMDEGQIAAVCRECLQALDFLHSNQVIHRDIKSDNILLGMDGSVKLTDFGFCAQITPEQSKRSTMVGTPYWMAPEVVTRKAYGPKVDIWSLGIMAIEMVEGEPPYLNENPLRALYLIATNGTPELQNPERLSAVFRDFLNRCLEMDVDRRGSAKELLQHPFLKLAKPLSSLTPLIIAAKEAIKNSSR

SMILES	IC50 (PAK3; Table 1 of Example 100)	IC50 (PAK1; Table 1 of Example 100)	IC50 (PAK2; [1])	IC50 (PAK4; Table 1 of Example 100)	IC50 (PAK3; [2])	IC50 (PAK1; [2])	IC50 (PAK2; [3])	IC50 (PAK4; [2])
Cc1cccnc1Cn1c(=O)ccc2cnc(Nc3ccc(N4CCN(C)CC4)cc3)nc21 [Compound 52]	> 10 µM	1 to 10 µM	1 to 10 µM	1 to 10 µM	–	–	–	–
CN1CCN(c2ccc(Nc3ncc4ccc(=O)n(Cc5ccccc5-n5cccn5)c4n3)cc2)CC1 [Compound 53]	1 to 10 µM	< 1 µM	1 to 10 µM	1 to 10 µM	–	–	–	–
COc1ccc(F)cc1Cn1c(=O)ccc2cnc(Nc3ccc(N4CCN(C)CC4)cc3)nc21 [Compound 54]	1 to 10 µM	< 1 µM	1 to 10 µM	1 to 10 µM	–	–	–	–
CC(c1ccccc1)n1c(=O)ccc2cnc(Nc3ccc(N4CCN(C)CC4)cc3)nc21 (centres unmarked) [Compound 102]	–	–	–	–	> 10 µM	1 to 10 µM	1 to 10 µM	1 to 10 µM
CN1CCN(c2ccc(Nc3ncc4ccc(=O)n(CCc5ccccc5)c4n3)cc2)CC1 [Compound 103]	–	–	–	–	1 to 10 µM	< 1 µM	< 1 µM	< 1 µM
CN1CCN(c2ccc(Nc3ncc4ccc(=O)n(CC(=O)c5ccccc5)c4n3)cc2)CC1 [Compound 104]	–	–	–	–	1 to 10 µM	1 to 10 µM	1 to 10 µM	1 to 10 µM
CN1CCN(c2ccc(Nc3ncc4ccc(=O)n(Cc5ccccc5-n5cccn5)c4n3)cc2)CC1 [Compound 107]	–	–	–	–	1 to 10 µM	< 1 µM	1 to 10 µM	1 to 10 µM
COc1ccc(F)cc1Cn1c(=O)ccc2cnc(Nc3ccc(N4CCN(C)CC4)cc3)nc21 [Compound 108]	–	–	–	–	1 to 10 µM	< 1 µM	1 to 10 µM	1 to 10 µM
CN1CCCC(Nc2ccc(Nc3ncc4ccc(=O)n(Cc5ccccc5C(F)(F)F)c4n3)cc2)C1 (centres unmarked) [Compound 115]	–	–	–	–	< 1 µM	< 1 µM	< 1 µM	< 1 µM
Cc1ccccc1Cn1c(=O)ccc2cnc(Nc3ccc(N4CCN(C)CC4)cc3)nc21 [Compound 117]	–	–	–	–	< 1 µM	< 1 µM	< 1 µM	< 1 µM
Cc1cccc(O)c1Cn1c(=O)ccc2cnc(Nc3ccc(N4CCN(C)CC4)cc3)nc21 [Compound 119]	–	–	–	–	1 to 10 µM	< 1 µM	1 to 10 µM	< 1 µM
CN1CCN(c2ccc(Nc3ncc4ccc(=O)n(Cc5ccccc5-c5ncno5)c4n3)cc2)CC1 [Compound 127]	–	–	–	–	1 to 10 µM	< 1 µM	1 to 10 µM	1 to 10 µM
O=c1ccc2cnc(Nc3ccc(N4CCNCC4)c(F)c3)nc2n1Cc1ccccc1-c1ncno1 [Compound 132]	–	–	–	–	1 to 10 µM	< 1 µM	1 to 10 µM	1 to 10 µM
O=c1c(-c2ccccc2)cc2cnc(Nc3ccc(NC4CCCNC4)cc3)nc2n1Cc1ccccc1C(F)(F)F (centres unmarked) [Compound 167]	–	–	–	–	< 1 µM	< 1 µM	< 1 µM	1 to 10 µM

Results, then the compound that gave them:

IC50 (PAK3; Table 1 of Example 100)	IC50 (PAK1; Table 1 of Example 100)	IC50 (PAK2; [1])	IC50 (PAK4; Table 1 of Example 100)	IC50 (PAK3; [2])	IC50 (PAK1; [2])	IC50 (PAK2; [3])	IC50 (PAK4; [2])	SMILES
> 10 µM	1 to 10 µM	1 to 10 µM	1 to 10 µM	–	–	–	–	CC(c1ccccc1)n1c(=O)ccc2cnc(Nc3ccc(N4CCN(C)CC4)cc3)nc21 (centres unmarked) [Compound 48]
1 to 10 µM	< 1 µM	< 1 µM	< 1 µM	–	–	–	–	CN1CCN(c2ccc(Nc3ncc4ccc(=O)n(CCc5ccccc5)c4n3)cc2)CC1 [Compound 49]
1 to 10 µM	1 to 10 µM	1 to 10 µM	1 to 10 µM	–	–	–	–	CN1CCN(c2ccc(Nc3ncc4ccc(=O)n(CC(=O)c5ccccc5)c4n3)cc2)CC1 [Compound 50]
–	–	–	–	> 10 µM	1 to 10 µM	1 to 10 µM	1 to 10 µM	Cc1cccnc1Cn1c(=O)ccc2cnc(Nc3ccc(N4CCN(C)CC4)cc3)nc21 [Compound 106]
–	–	–	–	1 to 10 µM	< 1 µM	< 1 µM	< 1 µM	CN1CCN(c2ccc(Nc3ncc4ccc(=O)n(Cc5c(O)cccc5Cl)c4n3)cc2)CC1 [Compound 109]
–	–	–	–	< 1 µM	< 1 µM	1 to 10 µM	1 to 10 µM	CN1CCN(c2ccc(Nc3ncc4ccc(=O)n(Cc5c(F)cccc5[S+](C)[O-])c4n3)cc2)CC1 (centres unmarked) [Compound 139]
